Like-named read-outs stand apart in the source and are kept apart here.

Format in all cases: in vivo
One assay relates to Kochia (Kochia scoparia). Put plainly: Test A preemergence. The settings on record: Bassia scoparia, pre-emergence, 240 h; for pest or weed control at 125 g/ha: 125 g ai/ha; for pest or weed control at 500 g/ha: 500 g ai/ha. In outline:
(§1)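 Seeds sprayed preemergence with a directed soil spray, or plants at 2 to 10 cm height and one- to two-leaf stage sprayed postemergence, with test chemicals in a non-phytotoxic solvent mixture containing surfactant, in loam soil–sand blend. Injury rated visually against untreated controls after about 10 d in greenhouse, 0 (no effect) to 100 (complete control).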

In assay [1] the test system is barnyardgrass (Echinochloa crus-galli). Put plainly: Test A preemergence. The note with it: Echinochloa crus-galli, pre-emergence, 240 h; for pest or weed control at 125 g/ha: 125 g ai/ha; for pest or weed control at 500 g/ha: 500 g ai/ha. In outline: as §1
The subject of assay [2] is giant foxtail (Setaria faberii). Put plainly: Test A preemergence. The settings on record: Setaria faberi, pre-emergence, 240 h; for pest or weed control at 125 g/ha: 125 g ai/ha; for pest or weed control at 500 g/ha: 500 g ai/ha. The procedure, abridged: as §1
Assay [3] concerns pigweed (Amaranthus retroflexus). The assay can be described thus: Test A preemergence. The note with it: Amaranthus retroflexus, pre-emergence, 240 h; for pest or weed control at 125 g/ha: 125 g ai/ha; for pest or weed control at 500 g/ha: 500 g ai/ha.
Assay [4] relates to ragweed (common ragweed, Ambrosia elatior). The assay can be described thus: Test A preemergence. The note with it: Ambrosia artemisiifolia, pre-emergence, 240 h; for pest or weed control at 125 g/ha: 125 g ai/ha; for pest or weed control at 500 g/ha: 500 g ai/ha. In outline: as §1
In assay [5] the test system is ryegrass, Italian (Italian ryegrass, Lolium multiflorum). Put plainly: Test A preemergence. The settings on record: Lolium multiflorum, pre-emergence, 240 h; for pest or weed control at 125 g/ha: 125 g ai/ha; for pest or weed control at 500 g/ha: 500 g ai/ha. In outline:
as §1

The subject of assay [6] is Galium (catchweed bedstraw, Galium aparine). Put plainly: Test A postemergence. The note with it: Galium, post-emergence, 240 h; for pest or weed control at 125 g/ha: 125 g ai/ha; for pest or weed control at 500 g/ha: 500 g ai/ha. The procedure, abridged:
as §1

The test system of assay [7] is barnyardgrass (Echinochloa crus-galli). Put plainly: Test A postemergence. The note with it: Echinochloa crus-galli, post-emergence, 240 h; for pest or weed control at 125 g/ha: 125 g ai/ha; for pest or weed control at 500 g/ha: 500 g ai/ha. In outline: as §1
For another assay, the system named is corn (Zea mays). The assay can be described thus: Test A postemergence. The note with it: Zea mays, post-emergence, 240 h. In outline: as §1
Assay [8] has as its system ragweed (common ragweed, Ambrosia elatior). Put plainly: Test A postemergence. The settings on record: Ambrosia artemisiifolia, post-emergence, 240 h; for pest or weed control at 125 g/ha: 125 g ai/ha; for pest or weed control at 500 g/ha: 500 g ai/ha. The procedure, abridged: as §1
Assay [9] concerns barnyardgrass (Echinochloa crus-galli). The assay can be described thus: Test B flooded paddy test. The note with it: Echinochloa crus-galli, 250 g ai/ha, Flood; 0 to 100 scale where 0 is no effect and 100 is complete control; read-out: Barnyardgrass plant response rating. The procedure, abridged:
(§2)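 Evaluation by eye, against controls, occurred 13–15 d post-treatment in a greenhouse, using a 0 (no effect) to 100 (complete control) scale. Application was into the paddy water, 3 cm deep over the soil, on 2-leaf plants.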

Assay [10] relates to ducksalad (Heteranthera limosa). Put plainly: Test B flooded paddy test. The note with it: Heteranthera limosa, 250 g ai/ha, Flood; 0 to 100 scale where 0 is no effect and 100 is complete control; read-out: Ducksalad plant response rating. In outline:
as §2

Another assay has as its system rice (Oryra sativa). The assay can be described thus: Test B flooded paddy test. The note with it: Oryza sativa, 250 g ai/ha, Flood; 0 to 100 scale where 0 is no effect and 100 is complete control; read-out: Rice plant response rating. In outline: as §2
For assay [11], the system named is sedge, umbrella (small-flower umbrella sedge, Cyperus difformis). The assay can be described thus: Test B flooded paddy test. The note with it: Cyperus difformis, 250 g ai/ha, Flood; 0 to 100 scale where 0 is no effect and 100 is complete control; read-out: Sedge, Umbrella plant response rating. In outline:
as §2

`Cc1nc([C@H]2CNC(=O)[C@@H]2C(=O)Nc2cccc(F)c2F)cs1` [Compound 1180]: the pest or weed control at 125 g/ha was 0% in the assay with Kochia (Kochia scoparia) (preemergence, 0 to 100 scale where 0 is no effect and 100 is complete control, approx. 10 d, read-out: Kochia plant response rating); 20% in [1] (preemergence, 0 to 100 scale where 0 is no effect and 100 is complete control, approx. 10 d, read-out: Barnyardgrass plant response rating); 0% in assay [2] (preemergence, 0 to 100 scale where 0 is no effect and 100 is complete control, approx. 10 d, read-out: Foxtail, Giant plant response rating); 0% in [3] (preemergence, 0 to 100 scale where 0 is no effect and 100 is complete control, approx. 10 d, read-out: Pigweed plant response rating); 0% in assay [4] (preemergence, 0 to 100 scale where 0 is no effect and 100 is complete control, approx. 10 d, read-out: Ragweed plant response rating); 0% in assay [5] (preemergence, 0 to 100 scale where 0 is no effect and 100 is complete control, approx. 10 d, read-out: Ryegrass, Italian plant response rating). For the same molecule, the pest or weed control at 125 g/ha in [6] (postemergence, visual injury vs untreated controls after approx. 10 d, 0 = no effect, 100 = complete control, read-out: Galium plant response rating (0 to 100 scale)) was determined as 0%; in assay [7] (postemergence, visual injury vs untreated controls after approx. 10 d, 0 = no effect, 100 = complete control, read-out: Barnyardgrass plant response rating (0 to 100 scale)), 0%; in assay [8] (postemergence, visual injury vs untreated controls after approx. 10 d, 0 = no effect, 100 = complete control, read-out: Ragweed plant response rating (0 to 100 scale)), 0%. Besides, the pest or weed control at 500 g/ha with Kochia (Kochia scoparia) (preemergence, 0 to 100 scale where 0 is no effect and 100 is complete control, read-out: Kochia plant response rating) was found to be 30%; in assay [1] (preemergence, 0 to 100 scale where 0 is no effect and 100 is complete control, read-out: Barnyardgrass plant response rating), 70%; in assay [2] (preemergence, 0 to 100 scale where 0 is no effect and 100 is complete control, read-out: Foxtail, Giant plant response rating) it was 50%; in assay [3] (preemergence, 0 to 100 scale where 0 is no effect and 100 is complete control, read-out: Pigweed plant response rating) it was 0%; in assay [4] (preemergence, 0 to 100 scale where 0 is no effect and 100 is complete control, read-out: Ragweed plant response rating) it was 0%; in [5] (preemergence, 0 to 100 scale where 0 is no effect and 100 is complete control, read-out: Ryegrass, Italian plant response rating), 0%. Also, the pest or weed control at 500 g/ha is 0% in [6] (postemergence, 0 to 100 scale, 0 is no effect, 100 is complete control, read-out: Galium plant response rating); 0% in assay [7] (postemergence, 0 to 100 scale, 0 is no effect, 100 is complete control, read-out: Barnyardgrass plant response rating); 0% in [8] (postemergence, 0 to 100 scale, 0 is no effect, 100 is complete control, read-out: Ragweed plant response rating). Besides, the plant injury at 125 g/ha in the assay on corn (Zea mays) (125 g ai/ha, postemergence, visual injury vs untreated controls after approx. 10 d, 0 = no effect, 100 = complete control, read-out: Corn plant response rating (0 to 100 scale)) was 0%. In addition, the plant injury at 500 g/ha with corn (Zea mays) (500 g ai/ha, postemergence, 0 to 100 scale, 0 is no effect, 100 is complete control, read-out: Corn plant response rating) came out at 0%. Also, the pest or weed control at 250 g/ha in assay [9] was 0%; in assay [10], 85%; in the assay with rice (Oryra sativa) it was 0%; in assay [11], 0%.

Regarding `COc1ccc([C@H]2CN(C)C(=O)[C@@H]2C(=O)Nc2cccc(F)c2F)cc1F` [Compound 1021], the pest or weed control at 125 g/ha in the assay on Kochia (Kochia scoparia) (Preemergence, visual injury rating after approximately 10 d, read-out: Kochia plant response rating (0 to 100 scale, 0 is no effect, 100 is complete control)) was 70%; in assay [1] (Preemergence, visual injury rating after approximately 10 d, read-out: Barnyardgrass plant response rating (0 to 100 scale, 0 is no effect, 100 is complete control)), 100%; in assay [2] (Preemergence, visual injury rating after approximately 10 d, read-out: Foxtail, Giant plant response rating (0 to 100 scale, 0 is no effect, 100 is complete control)), 100%; in assay [3] (Preemergence, visual injury rating after approximately 10 d, read-out: Pigweed plant response rating (0 to 100 scale, 0 is no effect, 100 is complete control)) it was 70%; in assay [4] (Preemergence, visual injury rating after approximately 10 d, read-out: Ragweed plant response rating (0 to 100 scale, 0 is no effect, 100 is complete control)), 70%; in assay [5] (Preemergence, visual injury rating after approximately 10 d, read-out: Ryegrass, Italian plant response rating (0 to 100 scale, 0 is no effect, 100 is complete control)), 0%. In addition, the pest or weed control at 125 g/ha in assay [6] (Postemergence, visual injury after approximately 10 d, 0 to 100 scale where 0 is no effect and 100 is complete control, read-out: Plant response rating, Galium) stood at 50%; in assay [7] (Postemergence, visual injury after approximately 10 d, 0 to 100 scale where 0 is no effect and 100 is complete control, read-out: Plant response rating, Barnyardgrass), 100%; in assay [8] (Postemergence, visual injury after approximately 10 d, 0 to 100 scale where 0 is no effect and 100 is complete control, read-out: Plant response rating, Ragweed) it was 40%. The pest or weed control at 500 g/ha came to 90% in the assay with Kochia (Kochia scoparia) (preemergence, visual injury rating about 10 d after treatment, 0 to 100 scale (0 no effect, 100 complete control), read-out: Kochia plant response rating); 100% in assay [1] (preemergence, visual injury rating about 10 d after treatment, 0 to 100 scale (0 no effect, 100 complete control), read-out: Barnyardgrass plant response rating); 100% in assay [2] (preemergence, visual injury rating about 10 d after treatment, 0 to 100 scale (0 no effect, 100 complete control), read-out: Foxtail, Giant plant response rating); 80% in assay [3] (preemergence, visual injury rating about 10 d after treatment, 0 to 100 scale (0 no effect, 100 complete control), read-out: Pigweed plant response rating); 70% in assay [4] (preemergence, visual injury rating about 10 d after treatment, 0 to 100 scale (0 no effect, 100 complete control), read-out: Ragweed plant response rating); 20% in [5] (preemergence, visual injury rating about 10 d after treatment, 0 to 100 scale (0 no effect, 100 complete control), read-out: Ryegrass, Italian plant response rating). The pest or weed control at 500 g/ha came to 70% in assay [6] (postemergence, visual injury, 0 to 100 scale (0 no effect, 100 complete control), approx. 10 d, read-out: Plant response rating, Galium); 100% in assay [7] (postemergence, visual injury, 0 to 100 scale (0 no effect, 100 complete control), approx. 10 d, read-out: Plant response rating, Barnyardgrass); 60% in [8] (postemergence, visual injury, 0 to 100 scale (0 no effect, 100 complete control), approx. 10 d, read-out: Plant response rating, Ragweed). In addition, in the assay on corn (Zea mays) (125 g ai/ha, Postemergence, visual injury after approximately 10 d, 0 to 100 scale where 0 is no effect and 100 is complete control), the Corn plant response rating (crop injury, 0 = no effect, 100 = complete kill) at 125 g/ha worked out at 60%. The same molecule registered a Corn plant response rating (crop injury, 0 = no effect, 100 = complete kill) at 500 g/ha in the assay with corn (Zea mays) (500 g ai/ha, postemergence, visual injury, 0 to 100 scale (0 no effect, 100 complete control), approx. 10 d) of 80%. Further, the pest or weed control at 250 g/ha in assay [9] was found to be 80%; in assay [10], 98%; in the assay with rice (Oryra sativa) it was 15%; in assay [11] it was 0%.

Values taken from patent US12077503B2, “Substituted cyclic amides and their use as herbicides” (FMC CORPORATION, priority 2015, dated 2024).
